# Data taken from patent US12109176B1, “Effect of glycerol on biofilm forming bacteria and fungi that changes the microbes sensitivity to pro and anti-biofilm non-toxic, non-bonded plasma amino acids and amino acid derivatives” (priority 2023, dated 2024).
# How the values were obtained:
# bacterial biofilm = experiment: In vitro testing on bacterial biofilm (inhibition and/or disruption); type: cell-based; settings: in vitro testing
# Method: (§1) Two types of biofilm assays were performed: an inhibition assay and a disruption assay. The inhibition assay assesses the compound's ability to prevent biofilm development, while the disruption assay assesses the compound's ability to break up an existing mature biofilm.
# (§2) All bacterial biofilm solutions were prepared in Tryptic Soy Broth (TSB), supplemented with 1% glucose (henceforth referred to as TSB-G). All subsequent procedures were performed in a manner that maintained sterility. A solution of each amino acid or an amino acid derivative to be tested was prepared in weight to volume concentrations ranging from 0.1-5.0%. Amino acids and amino acid derivatives were also tested in combinations. Compound solutions were homogenized with gentle agitation in the dark (4° C., 24 hours) before use.
# (§3) 32 Amino acids and 2 amino acid derivatives of the amino acid serine that occur freely in human blood were tested. […] 31 of the 32 amino acids that were tested were the L-Isomers. Glycine has no stereoisomers. The 2 amino acid derivatives, ethanolamine and phosphoethanolamine were also tested. All biofilm assays were performed using 384-well non-tissue culture-treated polystyrene plates. The fungal species tested are as follows: Candida albicans, Candida guilliermondii, Candida parapsilosis, Candida glabrata, Candida tropicalis and Candida dubliniensis. The bacterial species tested are as follows: Staphylococci (standard wild type and methicillin-resistant strain USA300), Escherichia coli, Pseudomonas aeruginosa and Staphylococcus epidermidis.
# (§4) Bacterial strains were streaked on Blood Agar plates (5% sheep blood in Tryptic Soy Broth) and incubated at 37° C. for 24 hours. A single colony from each strain to be tested was inoculated in a TSB broth and grown for 12 hours, at 37° C. with shaking (225 rpm). For the bacterial biofilm inhibition assays, 1 μL of saturated overnight cell culture was added to either 80 μL of TSB-G, or TSB-G supplemented with the amino acid compound solution to be tested, in a 384-well plate. The cells were allowed to adhere to the plate for 60 minutes at 37° C. without shaking. The media was carefully aspirated and 80 μL of TSB-G, or TSB-G supplemented with the amino acid compound solution was added to the plate. The plate was further incubated for 24 hours at 37° C. without shaking. Media was carefully aspirated and the biofilm was measured by optical density at 600 nm. Eight or twelve replicates were performed for each tested condition and the reported values are normalized to the control (TSB-G media only). For the bacterial biofilm disruption assays, 80 µL of TSB-G was added to the plate, along with 1 μL of overnight cell culture. The cells were allowed to adhere to the plate for 60 minutes at 37° C. with no shaking. The media was carefully aspirated and 80 μL of TSB-G was added to the plate. The plate was further incubated for 24 hours at 37° C. with no shaking. Media was carefully aspirated from the mature biofilm and 80 μL of TSB-G, or TSB-G supplemented with the amino acid to be tested, was gently added to the plate. The plate was further incubated for 24 hours at 37° C. without shaking. Media was aspirated and the biofilm was measured by optical density at 600 nm. Twelve replicates were performed for each tested condition and the reported values are normalized to the control (TSB-G media only).
# [1] = test system: bacterial (S. aureus) biofilm and fungal biofilm (C. albicans); experiment: Biofilm inhibition assay, bacterial and fungal taken together; type: cell-based; settings: symbol marks the assay
# Method: as §1, §2, §3
# Fungal strains were streaked on Yeast Peptone Dextrose (YPD) agar plates and incubated at 30° C. for 48 hours. A single colony from each strain to be tested was inoculated into YPD broth and grown for 12 hours at 30° C., shaking at 225 rpm. […] The cells were allowed to adhere to the plate for 90 minutes at 37° C. with shaking (350 rpm). […] The plate was further incubated for 24 hours at 37° C. with shaking (350 rpm). Media was carefully aspirated and the biofilm was measured by optical density at 600 nm. […] The cells were allowed to adhere to the plate for 90 minutes at 37° C. with shaking (350 rpm). […] The plate was further incubated for 24 hours at 37° C. with shaking (350 rpm). […] The plate was further incubated for 24 hours at 37° C. with shaking (350 rpm). Media was carefully aspirated, and the biofilm was measured by optical density at 600 nm.
# as §4, with “plate.” for “plate. The plate was further incubated for 24 hours at 37° C. without shaking. Media was aspirated and the biofilm was measured by optical density at 600 nm. Twelve replicates were performed for each tested condition and the reported values are normalized to the control (TSB-G media only).”
# [2] = test system: bacterial (S. aureus) biofilm; experiment: Bacterial biofilm inhibition assay; type: cell-based, Staphylococcus aureus
# Method: as §1, §2, §3, §4
# [3] = Table D, Neutral = no effect on the biofilm
# [4] = Table E, in the absence of an infusion of glycerol
# [5] = Table F, in the presence of a sufficient concentration of glycerol
Structure (SMILES),effect on bacterial biofilm (in words) (bacterial biofilm),"Neutral (square: Inhibition Biofilm Assay) [1, 3]","Neutral (square: Inhibition Biofilm Assay) [1, 4]","Neutral (square: Inhibition Biofilm Assay) [1, 5]","Promote B Biofilm (squares: Inhibition Biofilm Assay) ([2]; Table D, 0.1 to 5.0%)","Promote B Biofilm (squares: Inhibition Biofilm Assay) [2, 4]","Reduce or Inhibit B Biofilm (squares: Inhibition Biofilm Assay) ([2]; Table D, 0.1 to 5.0%)","Reduce or Inhibit B Biofilm (squares: Inhibition Biofilm Assay) [2, 5]"
"O=C(O)[C@@H]1CCCN1 [Proline, L-proline]",promoted bacterial biofilm formation,▪ (Single square [ie. ▪] signifies little effect on the Inhibition Biofilm Assay (from about 10 to less than 30%)),▪ (Single square [ie. ▪] signifies little effect on the Inhibition Biofilm Assay (from about 10 to less than 30%)),▪ (Single square [ie. ▪] signifies little effect on the Inhibition Biofilm Assay (from about 10 to less than 30%)),–,–,–,–
"NCC(=O)O [Glycine, L-glycine]",promoted bacterial biofilm formation,–,–,–,▪ (Single square [ie. ▪] signifies little effect on the Inhibition Biofilm Assay (from about 10 to less than 30%)),▪ (Single square [ie. ▪] signifies little effect on the Inhibition Biofilm Assay (from about 10 to less than 30%)),–,–
"CC[C@H](C)[C@H](N)C(=O)O [Isoleucine, L-isoleucine]",promoted bacterial biofilm formation,–,–,–,▪ (Single square [ie. ▪] signifies little effect on the Inhibition Biofilm Assay (from about 10 to less than 30%)),▪ (Single square [ie. ▪] signifies little effect on the Inhibition Biofilm Assay (from about 10 to less than 30%)),–,–
"C[C@@H](O)[C@H](N)C(=O)O [Threnonine, L-threonine]",promoted bacterial biofilm formation,–,–,–,–,–,–,–
"CC(C)C[C@H](N)C(=O)O [Leucine, L-leucine]",promoted bacterial biofilm formation,–,–,–,▪ (Single square [ie. ▪] signifies little effect on the Inhibition Biofilm Assay (from about 10 to less than 30%)),▪ (Single square [ie. ▪] signifies little effect on the Inhibition Biofilm Assay (from about 10 to less than 30%)),–,–
"Cn1cnc(C[C@H](N)C(=O)O)c1 [1-Methylhistidine, 1-methyl-L-histidine]",–,▪ (Single square [ie. ▪] signifies little effect on the Inhibition Biofilm Assay (from about 10 to less than 30%)),▪ (Single square [ie. ▪] signifies little effect on the Inhibition Biofilm Assay (from about 10 to less than 30%)),▪ (Single square [ie. ▪] signifies little effect on the Inhibition Biofilm Assay (from about 10 to less than 30%)),–,–,–,–
"CCC(N)C(=O)O (stereo not shown) [2 Aminobutyric Acid, 2-aminobutyric acid]",–,▪ (Single square [ie. ▪] signifies little effect on the Inhibition Biofilm Assay (from about 10 to less than 30%)),▪ (Single square [ie. ▪] signifies little effect on the Inhibition Biofilm Assay (from about 10 to less than 30%)),▪ (Single square [ie. ▪] signifies little effect on the Inhibition Biofilm Assay (from about 10 to less than 30%)),–,–,–,–
"N[C@@H](Cc1ccccc1)C(=O)O [Phenylalanine, L-phenylalanine]",promoted bacterial biofilm formation,–,–,–,▪ (Single square [ie. ▪] signifies little effect on the Inhibition Biofilm Assay (from about 10 to less than 30%)),▪ (Single square [ie. ▪] signifies little effect on the Inhibition Biofilm Assay (from about 10 to less than 30%)),–,–
"NC(=O)NCCC[C@H](N)C(=O)O [Citrulline, L-citrulline]",promoted bacterial biofilm formation,–,–,–,▪ (Single square [ie. ▪] signifies little effect on the Inhibition Biofilm Assay (from about 10 to less than 30%)),▪ (Single square [ie. ▪] signifies little effect on the Inhibition Biofilm Assay (from about 10 to less than 30%)),–,–
"NCCS(=O)(=O)O [Taurine, L-taurine]",promoted bacterial biofilm formation,–,–,–,–,–,–,–
"NC(=O)C[C@H](N)C(=O)O [Asparagine, L-asparagine]",promoted bacterial biofilm formation,–,–,–,▪ (Single square [ie. ▪] signifies little effect on the Inhibition Biofilm Assay (from about 10 to less than 30%)),▪ (Single square [ie. ▪] signifies little effect on the Inhibition Biofilm Assay (from about 10 to less than 30%)),–,–
"NCCC[C@H](N)C(=O)O [Ornithine, L-ornithine]",promoted bacterial biofilm formation,▪ (Single square [ie. ▪] signifies little effect on the Inhibition Biofilm Assay (from about 10 to less than 30%)),▪ (Single square [ie. ▪] signifies little effect on the Inhibition Biofilm Assay (from about 10 to less than 30%)),▪ (Single square [ie. ▪] signifies little effect on the Inhibition Biofilm Assay (from about 10 to less than 30%)),–,–,–,–
"NCCCC[C@H](N)C(=O)O [Lysine, L-lysine]",promoted bacterial biofilm formation,–,–,–,▪ (Single square [ie. ▪] signifies little effect on the Inhibition Biofilm Assay (from about 10 to less than 30%)),▪ (Single square [ie. ▪] signifies little effect on the Inhibition Biofilm Assay (from about 10 to less than 30%)),–,–
"NCCC(=O)O [Beta-Alanine, Beta-alanine]",antibacterial biofilm effect,–,–,–,–,–,▪ (Single square [ie. ▪] signifies little effect on the Inhibition Biofilm Assay (from about 10 to less than 30%)),▪ (Single square [ie. ▪] signifies little effect on the Inhibition Biofilm Assay (from about 10 to less than 30%))
